As a reminder, the IC50 is the concentration that inhibits the measured activity by half. The inhibition is how much of the control response was suppressed.

The record followed here is ChEMBL document CHEMBL3860060, “Discovery and Optimization of 1-Phenoxy-2-aminoindanes as Potent, Selective, and Orally Bioavailable Inhibitors of the Na+/H+ Exchanger Type 3 (NHE3)” (J Med Chem, 2016).

The source made the active and inactive calls. The rule behind the calls is not given here. Bounds are passed on as bounds.

The target of data set [1] is T1, Sodium/hydrogen exchanger 3 (Homo sapiens, UniProt P48764).
T1 sequence (P48764 whole entry): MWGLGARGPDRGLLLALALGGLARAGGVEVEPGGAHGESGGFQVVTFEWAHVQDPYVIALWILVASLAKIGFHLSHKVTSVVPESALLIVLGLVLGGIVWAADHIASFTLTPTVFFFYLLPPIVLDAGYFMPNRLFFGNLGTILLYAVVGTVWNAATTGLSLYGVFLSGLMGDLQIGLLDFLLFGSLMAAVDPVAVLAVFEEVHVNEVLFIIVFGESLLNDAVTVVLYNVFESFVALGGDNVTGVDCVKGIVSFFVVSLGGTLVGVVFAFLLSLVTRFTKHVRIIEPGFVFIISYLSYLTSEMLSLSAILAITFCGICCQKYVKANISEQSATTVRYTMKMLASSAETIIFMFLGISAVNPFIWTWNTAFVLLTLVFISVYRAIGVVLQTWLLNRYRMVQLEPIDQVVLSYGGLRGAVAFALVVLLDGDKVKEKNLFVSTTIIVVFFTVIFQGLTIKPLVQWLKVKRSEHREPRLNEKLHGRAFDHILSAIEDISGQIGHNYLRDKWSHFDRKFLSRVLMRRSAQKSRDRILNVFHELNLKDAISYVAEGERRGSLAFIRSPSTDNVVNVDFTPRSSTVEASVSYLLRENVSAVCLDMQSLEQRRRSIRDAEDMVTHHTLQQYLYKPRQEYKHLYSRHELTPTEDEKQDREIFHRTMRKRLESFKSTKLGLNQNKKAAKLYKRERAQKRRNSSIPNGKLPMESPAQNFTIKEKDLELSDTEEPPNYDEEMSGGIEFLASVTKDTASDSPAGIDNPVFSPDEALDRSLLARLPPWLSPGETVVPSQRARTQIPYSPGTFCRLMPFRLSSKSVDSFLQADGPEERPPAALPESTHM
The experiment in a line: Inhibition of human NHE3 expressed in LAP1 cell assessed as intracellular pH recovery measured for 2 mins by CECF-AM dye based FLIPR assay.

The nature of data set [2]: Permeability in human Caco2/TC7 cells assessed as total flux at 20 uM incubated for 2 hrs by LC-MS/MS method. In kind it is ADME, cell-based. The note with it: Caco-2, read-out: permeability.
Data set [3] addresses T2, CYP2D6 (Homo sapiens, UniProt P10635). As to the kind of experiment: Inhibition of CYP2D6 in pooled human hepatic microsomes at 10 uM using dextromethorphan substrate in presence of NADPH. To be noted: pooled human liver microsomes, probe dextromethorphan. In kind it is ADME. (Microsomes from liver hold many membrane-bound enzymes, among them those of drug oxidation.)
The target of the next data set is Cytochrome P450 2D6 (Homo sapiens, UniProt P10635).
Sequence of Cytochrome P450 2D6 (P10635 whole entry): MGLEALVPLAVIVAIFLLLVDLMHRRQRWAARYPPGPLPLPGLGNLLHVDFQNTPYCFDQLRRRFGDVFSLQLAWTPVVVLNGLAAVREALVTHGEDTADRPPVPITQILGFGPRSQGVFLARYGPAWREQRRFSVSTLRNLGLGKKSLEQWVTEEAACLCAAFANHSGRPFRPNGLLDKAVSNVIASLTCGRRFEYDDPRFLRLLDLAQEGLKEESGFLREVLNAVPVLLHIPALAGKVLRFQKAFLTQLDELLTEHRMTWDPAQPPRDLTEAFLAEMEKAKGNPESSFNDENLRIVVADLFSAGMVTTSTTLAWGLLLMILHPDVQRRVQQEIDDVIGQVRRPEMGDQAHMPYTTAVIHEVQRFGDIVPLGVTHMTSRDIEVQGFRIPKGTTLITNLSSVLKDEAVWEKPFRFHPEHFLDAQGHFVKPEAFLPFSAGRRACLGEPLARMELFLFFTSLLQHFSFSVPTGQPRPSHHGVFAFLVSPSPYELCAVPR
The target of data set [4] is T2, CYP2D6. The experiment in a line: Inhibition of CYP2D6 in pooled human hepatic microsomes assessed as remaining enzyme activity at 0.225 uM using […] substrate in presence of NADPH. In kind it is ADME. To be noted: pooled human liver microsomes, probe […], read-out: Activity.
The species entered for data set [5] is Homo sapiens. As to the kind of experiment: Inhibition of GABA-gated chloride channel (unknown origin) at 10 uM.
The species named for data set [6] is Homo sapiens. As to the kind of experiment: Inhibition of PDE4 (unknown origin) at 10 uM.
The test system of data set [7] is Sus scrofa. As to the kind of experiment: Inhibition of upper airway collapsibility in urethane-chloralose anesthetized pig at 1 mg/kg, id after 4 hrs. In kind it is functional, organism-based.
Data set [8] relates to Sus scrofa. As to the kind of experiment: Inhibition of upper airway collapsibility in urethane-chloralose anesthetized pig at 3 mg/kg, id after 4 hrs. In kind it is functional, organism-based.
A further data set deals with Cytochrome P450 3A4 (Homo sapiens, UniProt P08684). The experiment in a line: Inhibition of CYP3A4 in pooled human hepatic microsomes using testosterone substrate in presence of NADPH. In kind it is ADME, Liver.
Sequence of Cytochrome P450 3A4 (P08684 whole entry): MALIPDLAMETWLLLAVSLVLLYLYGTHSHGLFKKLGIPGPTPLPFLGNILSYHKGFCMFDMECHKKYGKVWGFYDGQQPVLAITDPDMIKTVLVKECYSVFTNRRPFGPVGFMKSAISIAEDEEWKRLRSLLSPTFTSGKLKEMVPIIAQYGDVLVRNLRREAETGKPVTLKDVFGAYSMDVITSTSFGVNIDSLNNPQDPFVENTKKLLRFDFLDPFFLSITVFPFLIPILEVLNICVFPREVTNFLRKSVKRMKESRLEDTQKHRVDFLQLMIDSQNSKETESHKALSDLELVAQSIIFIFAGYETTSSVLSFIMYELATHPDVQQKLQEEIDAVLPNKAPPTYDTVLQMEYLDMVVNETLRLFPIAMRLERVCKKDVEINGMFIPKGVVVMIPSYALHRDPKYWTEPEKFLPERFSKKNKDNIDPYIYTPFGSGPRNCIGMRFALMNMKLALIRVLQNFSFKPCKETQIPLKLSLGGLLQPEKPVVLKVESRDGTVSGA

T2 sequence (P10635 whole entry): as the sequence (P10635 whole entry) above
Description for Cytochrome P450 2D6: Inhibition of CYP2D6 in pooled human hepatic microsomes using dextromethorphan substrate in presence of NADPH

As for `Cc1nnc(C)n1-c1ccc(O[C@H]2c3cc(Cl)cc(Cl)c3C[C@@H]2N2CCCN(C)CC2)cc1`, the IC50 in data set [1] was 0.017 µM; against Cytochrome P450 2D6 it was greater than 10 µM. The Papp at 2 h, 20 µM in data set [2] was found to be 2 nm/s. Moreover, the inhibition at 10 µM on CYP2D6 [3] is 22%.

In the case of `C=C[C@H]1C[N@@]2CC[C@H]1C[C@@H]2[C@@H](O)c1ccnc2ccc(OC)cc12` [QUINIDINE], on CYP2D6 [4], the activity at 0.225 µM was 21%.

In the case of `Cc1nnc(C)n1-c1ccc(O[C@H]2c3cc(Cl)cc(Cl)c3C[C@@H]2N2CC[C@@H](O)C2)c(F)c1` [listing 1 of 2 here], the inhibition in the data set listed under Homo sapiens [5] is 55%; in the data set filed under Homo sapiens [6] it was 54%. For the same compound, the inhibition result in the data set with Sus scrofa [7] and with Sus scrofa [8] was “Active” in each case.

On to `Cc1nnc(C)n1-c1ccc(O[C@H]2c3cc(Cl)cc(Cl)c3C[C@@H]2N2CCCNCC2)cc1`, for which the values for the IC50 (in data set [1]; against Cytochrome P450 2D6) were 0.023 µM and greater than 10 µM, respectively. Besides, the Papp at 2 h, 20 µM in [2] came to 3 nm/s. Also, the inhibition at 10 µM on CYP2D6 [3] is 25%.

On to `CC(=O)Nc1cccc(O[C@H]2c3ccccc3C[C@@H]2N2CCCC2)c1`, for which the figures for the IC50 (in [1]; on Cytochrome P450 2D6) were 0.438 µM and 0.64 µM, respectively. Also, in data set [2], the Papp at 2 h, 20 µM is 91 nm/s.

Take `Cc1nnc(C)n1-c1ccc(O[C@H]2c3cc(Cl)cc(Cl)c3C[C@@H]2N2CC[C@@H](O)C2)c(F)c1` [listing 2 of 2 here]: the results for the IC50 (in [1]; on Cytochrome P450 3A4; against Cytochrome P450 2D6) were 0.034 µM, greater than 50 µM and greater than 10 µM, respectively. Also, the Papp at 2 h, 20 µM in data set [2] amounted to 28 nm/s. The inhibition at 10 µM on CYP2D6 [3] is 17%.

As for `CN1CCCN([C@H]2Cc3c(Cl)cc(Cl)cc3[C@@H]2Oc2ccc(S(C)(=O)=O)cc2)CC1`, the IC50 in [1] is 0.093 µM; against Cytochrome P450 2D6, less than 0.3 µM. Also, the Papp at 2 h, 20 µM in data set [2] was found to be 64 nm/s.

Turning to `NS(=O)(=O)c1ccc(O[C@H]2c3ccccc3C[C@@H]2N2CCCC2)c(Cl)c1Cl`, the IC50 in data set [1] was determined as 0.123 µM; against Cytochrome P450 2D6, 0.4 µM. Besides, the Papp at 2 h, 20 µM in [2] amounted to 132 nm/s.

With `CS(=O)(=O)c1ccc(O[C@H]2c3ccccc3C[C@@H]2N2CCCC2)cc1`, the IC50 is 0.572 µM in [1] and less than 0.3 µM at Cytochrome P450 2D6. Also, the Papp at 2 h, 20 µM in data set [2] is 215 nm/s.

Turning to `NC(=O)Nc1cccc(O[C@H]2c3ccccc3C[C@@H]2N2CCC[C@@H](N)C2)c1`, the figures for the IC50 (in data set [1]; against Cytochrome P450 2D6) were 0.33 µM and 8.6 µM, respectively. Further, in data set [2], the Papp at 2 h, 20 µM was 0.4 nm/s.

With `N[C@@H]1CCCN([C@H]2Cc3c(Cl)cc(Cl)cc3[C@@H]2Oc2ccc(S(N)(=O)=O)c(Cl)c2Cl)C1`, the values for the IC50 (in [1]; against Cytochrome P450 2D6) were 0.0002 µM and 1.5 µM, respectively. For the same compound, the Papp at 2 h, 20 µM in data set [2] was 6 nm/s.

Consider `Cc1nnc(C)n1-c1ccc(O[C@H]2c3cc(Cl)ccc3C[C@@H]2N2CCCC2)c(Cl)c1`, for which the IC50 in [1] was determined as 0.094 µM; against Cytochrome P450 2D6, 2.5 µM. Also, the Papp at 2 h, 20 µM in data set [2] stood at 162 nm/s.
